Experimental data from US12209102B2, “Heterocyclic compounds and uses thereof” (Kumquat Biosciences Inc., priority 2022, dated 2025).

How the values were obtained:
A549 cells = assay: Ras cellular assay, growth of cells with K-Ras G12S mutation (CellTiter-Glo); type: cell-based; settings: Homo sapiens, cell growth, Example 9, G12S mutation, read-out: IC50 against A549 cells
Method: For example, this assay can be also used to assess a selective growth inhibition of a mutant Ras protein relative to a wildtype, or relative to a different mutant Ras protein.
A549 (ATCC CCL-185) and LS123 (ATCC CCL-255) cell lines comprise a G12S mutation and can be used to assess Ras cellular signaling in vitro, e.g., in response to the compounds herein. A549 culture medium is prepared with RPMI-1640 and 10% heat-inactivated FBS. LS123 culture medium is prepared with RPMI-1640 and 10% heat-inactivated FBS. A CellTiter-Glo (CTG) luminescent based assay (Promega) is used to assess growth of the cells, as a measurement of the ability of the compounds herein to inhibit Ras signaling in the cells. The cells (e.g., 800 per well) are seeded in their respective culture medium in standard tissue culture-treated 384-well format plates (Falcon #08-772-116) or ultra-low attachment surface 384-well format plates (S-Bio #MS-9384WZ). The day after plating, cells are treated with a dilution series (e.g., a 10 point 3-fold dilution series) of the compounds herein (e.g., approximately 40 μL final volume per well). Cell viability can be monitored (e.g., approximately 6 days later) according to the manufacturer's recommended instructions, where the CellTiter-Glo reagent is added (e.g., approximately 10 μL), vigorously mixed, covered, and placed on a plate shaker (e.g., approximately for 20 min) to ensure sufficient cell lysis prior to assessment of luminescent signal. The IC50 values are determined using the four parameter fit. The resulting IC50 value is a measurement of the ability of the compounds herein to reduce cell growth of Ras-driven cells (e.g., tumor cell lines) in vitro and/or in vivo.

K-Ras G12V = target: T1, K-Ras G12V (Homo sapiens, UniProt P01116, G12V); assay: HTRF resonance energy transfer assay, K-Ras G12V / SOS1 interaction; type: biochemical; settings: HTRF assay of Example 5; read-out: IC50 against K-Ras G12V
T1 construct: made in house; host or cells: E. coli BL21 (DE3)
T1 sequence (P01116 1-188 isoform P01116-2 G12V): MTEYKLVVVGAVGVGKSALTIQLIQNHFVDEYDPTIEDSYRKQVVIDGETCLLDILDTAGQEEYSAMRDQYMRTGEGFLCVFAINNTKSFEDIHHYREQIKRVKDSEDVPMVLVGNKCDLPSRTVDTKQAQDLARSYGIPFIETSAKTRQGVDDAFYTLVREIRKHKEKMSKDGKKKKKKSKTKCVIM
In short: (§1)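 Buffer about 5 mM HEPES pH 7.4 with ~150 mM NaCl, ~1 mM DTT, 0.05% BSA, 0.0025% (v/v) Igepal. Protein constructs used at molarity matching the IC50 range studied (e.g. ~500 nM). FRET between tagged K-Ras and hSOS1 measured after short incubation.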

K-Ras G12S = target: T2, K-Ras G12S (Homo sapiens, UniProt P01116, G12S); assay: HTRF resonance energy transfer assay, K-Ras G12S / SOS1 interaction; type: biochemical; settings: HTRF assay of Example 5; read-out: IC50 against K-Ras G12S
T2 construct: made in house; host or cells: E. coli BL21 (DE3)
T2 sequence (P01116 1-188 isoform P01116-2 G12S): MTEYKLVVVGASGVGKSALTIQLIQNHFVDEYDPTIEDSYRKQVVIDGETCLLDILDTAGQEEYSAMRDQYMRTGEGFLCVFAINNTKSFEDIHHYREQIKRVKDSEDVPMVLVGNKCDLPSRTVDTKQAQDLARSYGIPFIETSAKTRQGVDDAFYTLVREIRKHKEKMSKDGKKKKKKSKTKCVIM
In short: as §1

K-Ras G12D = target: T3, K-Ras G12D (Homo sapiens, UniProt P01116, G12D); assay: HTRF resonance energy transfer assay, K-Ras G12D / SOS1 interaction; type: biochemical; settings: HTRF assay of Example 5; read-out: IC50 against K-Ras G12D
T3 construct: made in house; host or cells: E. coli BL21 (DE3)
T3 sequence (P01116 1-188 isoform P01116-2 G12D): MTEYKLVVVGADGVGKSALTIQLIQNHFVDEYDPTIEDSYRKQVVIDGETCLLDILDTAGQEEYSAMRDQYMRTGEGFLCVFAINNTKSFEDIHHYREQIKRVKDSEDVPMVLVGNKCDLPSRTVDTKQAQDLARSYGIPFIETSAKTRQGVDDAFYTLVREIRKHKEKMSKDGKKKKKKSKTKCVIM
In short: as §1

K-Ras WT = target: T4, K-Ras WT (Homo sapiens, UniProt P01116); assay: HTRF resonance energy transfer assay, K-Ras WT / SOS1 interaction; type: biochemical; settings: HTRF assay of Example 5; read-out: IC50 against K-Ras WT
T4 construct: made in house; host or cells: E. coli BL21 (DE3)
T4 sequence (P01116 1-188 isoform P01116-2): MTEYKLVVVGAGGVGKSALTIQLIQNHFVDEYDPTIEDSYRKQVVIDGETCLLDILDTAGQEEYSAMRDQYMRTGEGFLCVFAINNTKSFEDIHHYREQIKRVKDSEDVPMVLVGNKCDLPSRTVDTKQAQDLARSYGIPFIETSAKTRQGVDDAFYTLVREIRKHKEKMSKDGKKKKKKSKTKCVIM
In short: as §1

SW620 cells = assay: Ras cellular assay, growth of cells with K-Ras G12V mutation (CellTiter-Glo); type: cell-based; settings: Homo sapiens, SW-620; cell growth, Example 9, G12V mutation; read-out: IC50 against SW620 cells
In short: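 IC50 values came from a four-parameter fit of CellTiter-Glo viability, read roughly 6 days after dosing with e.g. a 10-point threefold dilution series. G12V-mutant SW620 cells (e.g. 800 per well) had been plated the previous day in RPMI-1640/10% heat-inactivated FBS, on tissue culture-treated or ultra-low attachment plates.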

| IC50 (A549 cells) [µM] | IC50 (K-Ras G12V) [nM] | IC50 (K-Ras G12S) [nM] | IC50 (K-Ras G12D) [nM] | IC50 (K-Ras WT) [nM] | IC50 (SW620 cells) [µM] | Structure (SMILES) |
| --- | --- | --- | --- | --- | --- | --- |
| < 5 |  |  |  |  |  | C[C@H]1COc2c(Cl)c(-c3ccc(F)c4sc(N)c(C#N)c34)c(F)c3nc(OC[C@@]45CCCN4C[C@H](F)C5)nc(c23)N1CC(F)F [Compound 658, 2-amino-4-((5S)-8-chloro-4-(2,2-difluoroethyl)-10-fluoro-2-(((2R,7aS)-2-fluorotetrahydro-1H-pyrrolizin-7a(5H)-yl)methoxy)-5-methyl-5,6-dihydro-4H-[1,4]oxazepino[5,6,7-de]quinazolin-9-yl)-7-fluorobenzo[b]thiophene-3-carbonitrile] |
| < 5 |  |  |  |  |  | N#Cc1c(N)sc2c(F)ccc(-c3c(Cl)c4c5c(nc(OC[C@@]67CCCN6C[C@H](F)C7)nc5c3F)N(C3CCCCC(O)C3)CCO4)c12 (stereo partly drawn) [Compound 825, 2-amino-4-(8-chloro-10-fluoro-2-(((2R,7aS)-2-fluorotetrahydro-1H-pyrrolizin-7a(5H)-yl)methoxy)-4-(3-hydroxycycloheptyl)-5,6-dihydro-4H-[1,4]oxazepino[5,6,7-de]quinazolin-9-yl)-7-fluorobenzo[b]thiophene-3-carbonitrile] |
| < 5 |  |  |  |  |  | N#Cc1c(N)sc2c(F)ccc(-c3c(Cl)c4c5c(nc(OC[C@@]67CCCN6C[C@H](F)C7)nc5c3F)N(CC(F)F)CCO4)c12 [Compound 827, 2-amino-4-(8-chloro-4-(2,2-difluoroethyl)-10-fluoro-2-(((2R,7aS)-2-fluorotetrahydro-1H-pyrrolizin-7a(5H)-yl)methoxy)-5,6-dihydro-4H-[1,4]oxazepino[5,6,7-de]quinazolin-9-yl)-7-fluorobenzo[b]thiophene-3-carbonitrile] |
| < 5 | < 100 | < 100 |  |  |  | N#Cc1c(N)sc2c(F)ccc(-c3c(Cl)c4c5c(nc(OC[C@@]67CCCN6C[C@H](F)C7)nc5c3F)N(C3CCOC3)[C@@H](C(F)F)CO4)c12 (stereo partly drawn) [Compound 855, 2-amino-4-((5R)-8-chloro-5-(difluoromethyl)-10-fluoro-2-(((2R,7aS)-2-fluorotetrahydro-1H-pyrrolizin-7a(5H)-yl)methoxy)-4-(tetrahydrofuran-3-yl)-5,6-dihydro-4H-[1,4]oxazepino[5,6,7-de]quinazolin-9-yl)-7-fluorobenzo[b]thiophene-3-carbonitrile] |
| < 5 | < 100 | < 100 | < 100 | < 100 |  | C[C@H](Oc1nc2c3c(c(Cl)c(-c4ccc(F)c5sc(N)c(C#N)c45)c(F)c3n1)OCCN2[C@@H]1CCN(C(=O)C(F)F)C1)[C@@H]1CCCN1C [Compound 946, 2-amino-4-(8-chloro-4-((R)-1-(2,2-difluoroacetyl)pyrrolidin-3-yl)-10-fluoro-2-((S)-1-((S)-1-methylpyrrolidin-2-yl)ethoxy)-5,6-dihydro-4H-[1,4]oxazepino[5,6,7-de]quinazolin-9-yl)-7-fluorobenzo[b]thiophene-3-carbonitrile] |
| < 5 | < 100 | < 100 | < 100 | < 100 |  | N#Cc1c(N)sc2c(F)ccc(-c3c(Cl)c4c5c(nc(OC[C@@]67CCCN6C[C@H](F)C7)nc5c3F)N(C3C5CNC3C5)CCO4)c12 (stereo partly drawn) [Compound 991, 4-(4-(2-azabicyclo[2.1.1]hexan-5-yl)-8-chloro-10-fluoro-2-(((2R,7aS)-2-fluorotetrahydro-1H-pyrrolizin-7a(5H)-yl)methoxy)-5,6-dihydro-4H-[1,4]oxazepino[5,6,7-de]quinazolin-9-yl)-2-amino-7-fluorobenzo[b]thiophene-3-carbonitrile] |
|  | < 100 | < 100 | < 100 | < 100 | < 5 | N#Cc1c(N)sc2c(F)ccc(-c3c(Cl)c4c5c(nc(OC[C@@]67CCCN6C[C@H](F)C7)nc5c3F)N([C@H]3CNC[C@@H]3F)CCO4)c12 [Compound 1085, 2-amino-4-(8-chloro-10-fluoro-4-((3S,4S)-4-fluoropyrrolidin-3-yl)-2-(((2R,7aS)-2-fluorotetrahydro-1H-pyrrolizin-7a(5H)-yl)methoxy)-5,6-dihydro-4H-[1,4]oxazepino[5,6,7-de]quinazolin-9-yl)-7-fluorobenzo[b]thiophene-3-carbonitrile] |
| < 5 | < 100 | < 100 | < 100 | < 100 |  | N#Cc1c(N)sc2c(F)ccc(-c3c(Cl)c4c5c(nc(OC[C@@]67CCCN6C[C@H](F)C7)nc5c3F)NCCO4)c12 [Compound 1087, 2-amino-4-(8-chloro-10-fluoro-2-(((2R,7aS)-2-fluorotetrahydro-1H-pyrrolizin-7a(5H)-yl)methoxy)-5,6-dihydro-4H-[1,4]oxazepino[5,6,7-de]quinazolin-9-yl)-7-fluorobenzo[b]thiophene-3-carbonitrile] |
| < 5 | < 100 | < 100 | < 100 | < 100 |  | N#Cc1c(N)sc2c(F)ccc(-c3c(Cl)c4c5c(nc(OC[C@@]67CCCN6C[C@H](F)C7)nc5c3F)N(C3CC35CCN(C=O)C5)CCO4)c12 (stereo partly drawn) [Compound 1091, 2-amino-4-(8-chloro-10-fluoro-2-(((2R,7aS)-2-fluorotetrahydro-1H-pyrrolizin-7a(5H)-yl)methoxy)-4-(5-formyl-5-azaspiro[2.4]heptan-1-yl)-5,6-dihydro-4H-[1,4]oxazepino[5,6,7-de]quinazolin-9-yl)-7-fluorobenzo[b]thiophene-3-carbonitrile] |
| < 5 | < 100 | < 100 | < 100 | < 100 |  | N#Cc1c(N)sc2c(F)ccc(-c3c(Cl)c4c5c(nc(OC[C@@]67CCCN6C[C@H](F)C7)nc5c3F)N(C3COC5(CNC5)C3)CCO4)c12 (stereo partly drawn) [Compound 1093, 2-amino-4-(8-chloro-10-fluoro-2-(((2R,7aS)-2-fluorotetrahydro-1H-pyrrolizin-7a(5H)-yl)methoxy)-4-(5-oxa-2-azaspiro[3.4]octan-7-yl)-5,6-dihydro-4H-[1,4]oxazepino[5,6,7-de]quinazolin-9-yl)-7-fluorobenzo[b]thiophene-3-carbonitrile] |
|  | < 100 | < 100 | < 100 | < 100 | < 5 | CN1c2nc(OC[C@@]34CCCN3C[C@H](F)C4)nc3c(F)c(-c4ccc(F)c5sc(N)c(C#N)c45)c(Cl)c(c23)OCC[C@H]1C1CC1 [Compound 1209, 2-amino-4-((5S)-9-chloro-5-cyclopropyl-11-fluoro-2-(((2R,7aS)-2-fluorotetrahydro-1H-pyrrolizin-7a(5H)-yl)methoxy)-4-methyl-4,5,6,7-tetrahydro-[1,5]oxazocino[4,3,2-de]quinazolin-10-yl)-7-fluorobenzo[b]thiophene-3-carbonitrile] |
|  | < 100 | < 100 | < 100 | < 100 | < 5 | CN1c2nc(OC[C@@]34CCCN3C[C@H](F)C4)nc3c(F)c(-c4ccc(F)c5sc(N)c(C#N)c45)c(Cl)c(c23)OCCC1CO (stereo partly drawn) [Compound 1217, 2-amino-4-(9-chloro-11-fluoro-2-(((2R,7aS)-2-fluorotetrahydro-1H-pyrrolizin-7a(5H)-yl)methoxy)-5-(hydroxymethyl)-4-methyl-4,5,6,7-tetrahydro-[1,5]oxazocino[4,3,2-de]quinazolin-10-yl)-7-fluorobenzo[b]thiophene-3-carbonitrile] |
